Assay results published in patent US8877819B2, “Methods for treating heat stress and related compositions” (Georgetown University, priority 2008, dated 2014).

How the values were obtained:
Zucker Fatty Rats (ZFR) [1] = experiment: Survival after accidental heat stress; type: in vivo; settings: Experiment 1; for survival after heat stress (survivors/group): day 42, 86-89° F. for 5-6 hours
Protocol: For two experiments, a total of 96 Zucker Fatty Rats (ZFR) (Charles River, Wilmington, Mass.) were used: 48 in each experiment were divided into four groups of 12 rats. Initial body weights ranged between 434 and 624 g in the first experiment and between 388 and 520 g in the second. All rats consumed a regular rat diet in crushed form (Purina Rat Chow, Ralston Purina, St. Louis, Mo.). Sucrose was added to the pulverized regular rat chow (30%, w/w). The four groups comprised a control eating the described diet and three test groups eating the same diet but with the addition of captopril or astaxanthin (two different doses). […] The amount of astaxanthin added was based on 2% (w/w) content of astaxanthin to powder. The first study continued for 57 days while the second continued for 75 days.
On the 42nd day, the temperature of rodent quarters rose from 72° F. to the range of 86-89° F. It was estimated that the rats were exposed to this elevated temperature for 5-6 hours. […] In contrast all ZFR in the Hi Asta group survived (11/11).
On a hot summer day, the air conditioning system in the animal quarters ceased functioning. The internal temperature of the animal quarters rose to a Fahrenheit range in the high 80's. Due to this heat stress, several ZFR that had already undergone almost six weeks of study expired. […] This can be attributed to poor stress handling of ZFR.

Zucker Fatty Rats (ZFR) [2] = experiment: Blood pressure and cardiac rate by tail plethysmography; type: in vivo; settings: for SBP over the last month vs control / SBP after heat stress: Experiment 1; for SBP after heat stress: survivors, 12 days after heat stress; for DBP / SBP / Cardiac rate / SBP at the end of study (75 days) vs Lo Asta group / average SBP vs control from 40 days to end of study: Experiment 2; for DBP / SBP / Cardiac rate: 60 days; for Cardiac rate: in beats/min (unit assumed)
Protocol: For two experiments, a total of 96 Zucker Fatty Rats (ZFR) (Charles River, Wilmington, Mass.) were used: 48 in each experiment were divided into four groups of 12 rats. Initial body weights ranged between 434 and 624 g in the first experiment and between 388 and 520 g in the second. All rats consumed a regular rat diet in crushed form (Purina Rat Chow, Ralston Purina, St. Louis, Mo.). Sucrose was added to the pulverized regular rat chow (30%, w/w). The four groups comprised a control eating the described diet and three test groups eating the same diet but with the addition of captopril or astaxanthin (two different doses). […] The amount of astaxanthin added was based on 2% (w/w) content of astaxanthin to powder. The first study continued for 57 days while the second continued for 75 days. SBP was measured by tail plethysmography using two different instruments. As in many previous studies, an instrument from Narco Biosciences (Houston, Tex.) was used. This allowed for rapid measurement SBP with a beeper sound system. The second reading was performed on an instrument obtained from Kent Scientific Corporation (Torrington, Conn.). The latter is a computerized, non-invasive tail cuff acquisition system that utilizes a specially-designed differential pressure transducer to non-invasively measure the blood volume in the tail. This instrument not only records SBP, but also provides measurements of mean blood pressure (MBP), diastolic blood pressure (DBP), and cardiac rate. The two instruments were used interchangeably. Previous experience has shown that the SBP readings were virtually the same by either instrument. Rats were allowed free access to their diet and water until SBP readings were obtained between 13.00 h and 17.00 h after a slight warming. Multiple readings on individual rats were taken. To be accepted, SBP measurements on a given rat had to be stable (consistently within 5 mm Hg).

MCP-1 = experiment: Cytokine assay (ELISA), MCP-1; type: in vivo, Zucker Fatty Rats; settings: Experiment 2
Protocol: Various cytokines were measured by ELISA methodology using kits from the following sources: rat MCP-1—Assay Designs Inc., Ann Arbor, Mich.; rat adiponectin—ALPCO Diagnostics, Salem, N.H.; TNF-a, ALPCO Diagnostics, Salem, N.H.; RAT IL-1B—Assay Designs Inc, Ann Arbor, Mich.; RAT IL-6—ALPCO Diagnostics, Salem, N.H.

[3] = system: Thiobarbituric acid-reactive substances (TBARS); experiment: Lipid peroxidation (TBARS) in hepatic and kidney homogenates; type: in vivo, Zucker Fatty Rats; settings: Experiment 2
Protocol: Thiobarbituric acid-reactive substances (TBARS) as an index of lipid peroxidation were determined on hepatic and kidney homogenates from control and treated and malondialdehyde (MDA) was used as the standard.

Blood chemistries = type: in vivo, Zucker Fatty Rats; settings: Experiment 2; for ALP (alkaline phosphatase) / ALT (alanine aminotransferase) / AST (aspartate aminotransferase) / BUN / CO2 / Calcium / Chloride / Cholesterol / Creatinine / Glucose / Potassium / Sodium / Triglycerides: blood at end of study
Source text: Blood for chemical analysis was obtained at the end of the study following removal of food four hours earlier. Blood chemistry values were obtained via dry chemistry procedures using a Johnson and Johnson (Langhorne, Pa.) Vitros® 250 instrument.

[4] = Hi Asta, astaxanthin 25 mg/kg in feed
[5] = Lo Asta, astaxanthin 5 mg/kg in feed

CC1=C(/C=C/C(C)=C/C=C/C(C)=C/C=C/C=C(C)/C=C/C=C(C)/C=C/C2=C(C)C(=O)[C@@H](O)CC2(C)C)C(C)(C)C[C@H](O)C1=O [Asta, astaxanthin]
survival percentage after heat stress (Zucker Fatty Rats (ZFR) [1]; [4]): 100%
survival percentage after heat stress (Zucker Fatty Rats (ZFR) [1]; [5]): 33%
survival after heat stress (survivors/group) (Zucker Fatty Rats (ZFR) [1]; [4]): 11/11
survival after heat stress (survivors/group) (Zucker Fatty Rats (ZFR) [1]; [5]): 4/12
SBP over the last month vs control (Zucker Fatty Rats (ZFR) [2]; [4]): significantly lower SBP
SBP over the last month vs control (Zucker Fatty Rats (ZFR) [2]; [5]): tendency for the SBP to be lower
SBP after heat stress (Zucker Fatty Rats (ZFR) [2]; [4]): 133.5 ± 1.5 mm Hg
SBP after heat stress (Zucker Fatty Rats (ZFR) [2]; [5]): 140.0 ± 2.0 mm Hg
DBP (Zucker Fatty Rats (ZFR) [2]; [4]): 102.0 ± 2.0 mm Hg
SBP (Zucker Fatty Rats (ZFR) [2]; [4]): 132.0 ± 1.8 mm Hg
Cardiac rate (Zucker Fatty Rats (ZFR) [2]; [4]): 401.0 ± 10.6
DBP (Zucker Fatty Rats (ZFR) [2]; [5]): 108.0 ± 2.1 mm Hg
SBP (Zucker Fatty Rats (ZFR) [2]; [5]): 134.0 ± 1.6 mm Hg
Cardiac rate (Zucker Fatty Rats (ZFR) [2]; [5]): 387.0 ± 8.6
SBP at the end of study (75 days) vs Lo Asta group (Zucker Fatty Rats (ZFR) [2]; [4]): significantly lower than in the Lo Asta group
average SBP vs control from 40 days to end of study (Zucker Fatty Rats (ZFR) [2]; [4]): significantly lower than control
average SBP vs control from 40 days to end of study (Zucker Fatty Rats (ZFR) [2]; [5]): significantly lower than control
MCP-1 (MCP-1; [4]): 96.0 ± 4.1
MCP-1 (MCP-1; [5]): 110.0 ± 5.2
Lipid peroxidation, Kidney [3, 4]: 3.5 ± 0.30 nmoles MDA/mg protein
Lipid peroxidation, Liver [3, 4]: 3.9 ± 0.46 nmoles MDA/mg protein
Lipid peroxidation, Kidney [3, 5]: 3.9 ± 0.48 nmoles MDA/mg protein
Lipid peroxidation, Liver [3, 5]: 4.7 ± 0.53 nmoles MDA/mg protein
renal damage (elevations in BUN and creatinine concentrations) (Blood chemistries; [4]): none of the ZFR in the Hi Asta group showed any evidence of elevations
renal damage (increased circulating urea, creatinine and potassium) (Blood chemistries; [5]): evidence of renal damage occurred in three ZFR
ALP (alkaline phosphatase) (Blood chemistries; [4]): 331 ± 27.3 U/L
ALT (alanine aminotransferase) (Blood chemistries; [4]): 86.2 ± 13.7 units
AST (aspartate aminotransferase) (Blood chemistries; [4]): 106.1 ± 21.0 units
BUN (Blood chemistries; [4]): 15.0 ± 0.5 mg/dL
CO2 (Blood chemistries; [4]): 23.5 ± 0.5 mM
Calcium (Blood chemistries; [4]): 11.4 ± 0.1 mg/dL
Chloride (Blood chemistries; [4]): 98.9 ± 0.8 mM
Cholesterol (Blood chemistries; [4]): 314.0 ± 13.6 mg/dL
Creatinine (Blood chemistries; [4]): 0.5 ± 0.01 mg/dL
Glucose (Blood chemistries; [4]): 327.0 ± 14.2 mg/dL
Potassium (Blood chemistries; [4]): 6 ± 0.13 mM
Sodium (Blood chemistries; [4]): 142 ± 0.8 mM
Triglycerides (Blood chemistries; [4]): 1172.0 ± 51.2 mg/dL
ALP (alkaline phosphatase) (Blood chemistries; [5]): 364 ± 33.4 U/L
ALT (alanine aminotransferase) (Blood chemistries; [5]): 70.9 ± 12.4 units
AST (aspartate aminotransferase) (Blood chemistries; [5]): 105.8 ± 20.9 units
BUN (Blood chemistries; [5]): 25.3 ± 5.4 mg/dL
CO2 (Blood chemistries; [5]): 22.5 ± 1 mM
Calcium (Blood chemistries; [5]): 11.3 ± 0.2 mg/dL
Chloride (Blood chemistries; [5]): 98.4 ± 0.7 mM
Cholesterol (Blood chemistries; [5]): 308.0 ± 27.8 mg/dL
Creatinine (Blood chemistries; [5]): 0.6 ± 0.90 mg/dL
Glucose (Blood chemistries; [5]): 317.0 ± 30.6 mg/dL
Potassium (Blood chemistries; [5]): 6.5 ± 0.04 mM
Sodium (Blood chemistries; [5]): 141 ± 0.7 mM
Triglycerides (Blood chemistries; [5]): 1167.0 ± 71.6 mg/dL

C[C@H](CS)C(=O)N1CCC[C@H]1C(=O)O [Captopril, reference compound]
survival percentage after heat stress (Zucker Fatty Rats (ZFR) [1]; captopril 30 mg/kg in feed): 36%
survival after heat stress (survivors/group) (Zucker Fatty Rats (ZFR) [1]; captopril 30 mg/kg in feed): 4/11
SBP over the last month vs control (Zucker Fatty Rats (ZFR) [2]; captopril 30 mg/kg in feed): significantly lower SBP
SBP after heat stress (Zucker Fatty Rats (ZFR) [2]; captopril 30 mg/kg in feed): 133.8 ± 2.4 mm Hg
DBP (Zucker Fatty Rats (ZFR) [2]; captopril 30 mg/kg in feed): 103.0 ± 1.8 mm Hg
SBP (Zucker Fatty Rats (ZFR) [2]; captopril 30 mg/kg in feed): 129.0 ± 1.5 mm Hg
Cardiac rate (Zucker Fatty Rats (ZFR) [2]; captopril 30 mg/kg in feed): 393.0 ± 9.3
SBP at the end of study (75 days) vs Lo Asta group (Zucker Fatty Rats (ZFR) [2]; captopril 30 mg/kg in feed): significantly lower than in the Lo Asta group
average SBP vs control from 40 days to end of study (Zucker Fatty Rats (ZFR) [2]; captopril 30 mg/kg in feed): significantly lower than control
MCP-1 (MCP-1; captopril 30 mg/kg in feed): 81.0 ± 4.1
Lipid peroxidation, Kidney ([3]; captopril 30 mg/kg in feed): 3.4 ± 0.44 nmoles MDA/mg protein
Lipid peroxidation, Liver ([3]; captopril 30 mg/kg in feed): 4.0 ± 0.29 nmoles MDA/mg protein
ALP (alkaline phosphatase) (Blood chemistries; captopril 30 mg/kg in feed): 333 ± 22.1 U/L
ALT (alanine aminotransferase) (Blood chemistries; captopril 30 mg/kg in feed): 89.4 ± 13.9 units
AST (aspartate aminotransferase) (Blood chemistries; captopril 30 mg/kg in feed): 93.0 ± 12.8 units
BUN (Blood chemistries; captopril 30 mg/kg in feed): 14.0 ± 0.5 mg/dL
CO2 (Blood chemistries; captopril 30 mg/kg in feed): 24.1 ± 0.9 mM
Calcium (Blood chemistries; captopril 30 mg/kg in feed): 11.3 ± 0.6 mg/dL
Chloride (Blood chemistries; captopril 30 mg/kg in feed): 98.6 ± 1 mM
Cholesterol (Blood chemistries; captopril 30 mg/kg in feed): 281.0 ± 15.6 mg/dL
Creatinine (Blood chemistries; captopril 30 mg/kg in feed): 0.4 ± 0.02 mg/dL
Glucose (Blood chemistries; captopril 30 mg/kg in feed): 327.0 ± 23.0 mg/dL
Potassium (Blood chemistries; captopril 30 mg/kg in feed): 6 ± 0.04 mM
Sodium (Blood chemistries; captopril 30 mg/kg in feed): 140 ± 0.5 mM
Triglycerides (Blood chemistries; captopril 30 mg/kg in feed): 1029.0 ± 73.6 mg/dL
